Experimental data reported in ChEMBL document CHEMBL3352017, “2-Guanidinoquinazolines as new inhibitors of the STAT3 pathway” (Bioorg Med Chem Lett, 2014).
Activity calls are given as the source filed them. The calls are words filed in the database; no cut-off is given here.

Assays:
[1] = Selectivity index, ratio of IC50 for IFNgamma-induced STAT1 pathway in human Cal33 cells to IC50 for IL-6-induced STAT3 pathway in human Cal33 cells; assay type: cell-based; conditions: CAL-33
cells [2] = conditions: Homo sapiens, OSC19
Description: Growth inhibition of human OSC19 cells

cells [3] = conditions: Homo sapiens
Description: Growth inhibition of human 686LN cells

FaDu = test: cells; conditions: Homo sapiens
Description: Growth inhibition of human FADU cells

[4] = biological target: Tyrosine-protein kinase JAK2 (Homo sapiens) (UniProt O60674); test: Inhibition of JAK2 phosphorylation in human Cal33 cells by Western blot analysis; assay type: cell-based; conditions: CAL-33
[5] = biological target: T1, Signal transducer and activator of transcription 1-alpha/beta (Homo sapiens) (UniProt P42224); test: Inhibition of IFNgamma-induced STAT1 pathway in human Cal33 cells at 50 uM; assay type: cell-based; conditions: CAL-33
T1 sequence (whole entry): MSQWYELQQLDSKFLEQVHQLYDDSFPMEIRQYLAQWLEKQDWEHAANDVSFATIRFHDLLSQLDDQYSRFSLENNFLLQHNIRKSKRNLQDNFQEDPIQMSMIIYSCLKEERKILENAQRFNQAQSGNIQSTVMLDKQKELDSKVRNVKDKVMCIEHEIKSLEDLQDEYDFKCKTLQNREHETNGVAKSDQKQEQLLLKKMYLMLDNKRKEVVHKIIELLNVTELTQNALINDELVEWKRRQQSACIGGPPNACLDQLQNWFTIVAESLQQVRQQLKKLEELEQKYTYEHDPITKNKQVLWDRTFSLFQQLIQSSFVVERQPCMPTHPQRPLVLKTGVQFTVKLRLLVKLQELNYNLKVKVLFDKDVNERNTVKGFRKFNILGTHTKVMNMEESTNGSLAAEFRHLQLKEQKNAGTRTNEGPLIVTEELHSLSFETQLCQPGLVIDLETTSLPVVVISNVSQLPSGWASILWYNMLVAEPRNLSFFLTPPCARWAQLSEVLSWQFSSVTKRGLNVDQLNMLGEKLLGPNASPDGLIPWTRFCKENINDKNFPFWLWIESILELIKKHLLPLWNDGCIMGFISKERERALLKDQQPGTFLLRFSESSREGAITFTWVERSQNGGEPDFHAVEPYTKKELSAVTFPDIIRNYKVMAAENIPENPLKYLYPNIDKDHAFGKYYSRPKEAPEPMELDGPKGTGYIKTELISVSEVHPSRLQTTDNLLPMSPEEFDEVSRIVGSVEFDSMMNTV

[6] = biological target: Tyrosine-protein kinase JAK1 (Homo sapiens) (UniProt P23458); test: Inhibition of JAK1 phosphorylation in human Cal33 cells by Western blot analysis; assay type: cell-based; conditions: CAL-33
cells [7] = conditions: Homo sapiens, CAL-33
Description: Growth inhibition of human CAL33 cells

Chain of Tyrosine-protein kinase JAK2 (Homo sapiens) (O60674 whole entry): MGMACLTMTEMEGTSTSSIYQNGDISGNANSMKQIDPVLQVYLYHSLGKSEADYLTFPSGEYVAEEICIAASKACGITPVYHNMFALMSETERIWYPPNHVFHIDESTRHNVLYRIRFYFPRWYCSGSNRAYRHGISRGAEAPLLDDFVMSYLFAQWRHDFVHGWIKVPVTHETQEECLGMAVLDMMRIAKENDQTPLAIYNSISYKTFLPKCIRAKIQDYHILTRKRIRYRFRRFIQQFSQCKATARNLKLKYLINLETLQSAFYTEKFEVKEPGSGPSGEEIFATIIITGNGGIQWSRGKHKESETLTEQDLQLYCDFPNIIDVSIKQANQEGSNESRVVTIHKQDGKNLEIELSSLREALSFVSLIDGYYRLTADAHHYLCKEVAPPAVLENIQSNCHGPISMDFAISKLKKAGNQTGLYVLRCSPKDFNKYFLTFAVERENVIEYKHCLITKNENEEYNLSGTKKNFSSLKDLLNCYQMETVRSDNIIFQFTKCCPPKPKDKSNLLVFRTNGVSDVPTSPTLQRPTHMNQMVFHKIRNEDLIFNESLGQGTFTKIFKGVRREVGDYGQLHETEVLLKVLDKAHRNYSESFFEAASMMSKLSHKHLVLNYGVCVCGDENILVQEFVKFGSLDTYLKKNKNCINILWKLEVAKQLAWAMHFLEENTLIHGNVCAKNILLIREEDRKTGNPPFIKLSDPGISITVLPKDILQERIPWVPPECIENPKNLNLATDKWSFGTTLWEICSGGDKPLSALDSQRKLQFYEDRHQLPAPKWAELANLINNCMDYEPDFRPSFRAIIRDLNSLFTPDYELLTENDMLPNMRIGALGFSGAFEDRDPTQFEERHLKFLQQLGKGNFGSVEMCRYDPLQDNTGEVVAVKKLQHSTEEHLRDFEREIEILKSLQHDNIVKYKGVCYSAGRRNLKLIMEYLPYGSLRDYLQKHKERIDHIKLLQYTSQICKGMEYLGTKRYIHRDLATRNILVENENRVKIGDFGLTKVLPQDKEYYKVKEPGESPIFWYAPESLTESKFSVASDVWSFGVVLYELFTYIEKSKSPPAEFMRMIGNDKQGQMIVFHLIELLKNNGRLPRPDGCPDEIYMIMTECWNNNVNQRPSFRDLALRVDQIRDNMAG
Chain of Tyrosine-protein kinase JAK1 (Homo sapiens) (P23458 whole entry): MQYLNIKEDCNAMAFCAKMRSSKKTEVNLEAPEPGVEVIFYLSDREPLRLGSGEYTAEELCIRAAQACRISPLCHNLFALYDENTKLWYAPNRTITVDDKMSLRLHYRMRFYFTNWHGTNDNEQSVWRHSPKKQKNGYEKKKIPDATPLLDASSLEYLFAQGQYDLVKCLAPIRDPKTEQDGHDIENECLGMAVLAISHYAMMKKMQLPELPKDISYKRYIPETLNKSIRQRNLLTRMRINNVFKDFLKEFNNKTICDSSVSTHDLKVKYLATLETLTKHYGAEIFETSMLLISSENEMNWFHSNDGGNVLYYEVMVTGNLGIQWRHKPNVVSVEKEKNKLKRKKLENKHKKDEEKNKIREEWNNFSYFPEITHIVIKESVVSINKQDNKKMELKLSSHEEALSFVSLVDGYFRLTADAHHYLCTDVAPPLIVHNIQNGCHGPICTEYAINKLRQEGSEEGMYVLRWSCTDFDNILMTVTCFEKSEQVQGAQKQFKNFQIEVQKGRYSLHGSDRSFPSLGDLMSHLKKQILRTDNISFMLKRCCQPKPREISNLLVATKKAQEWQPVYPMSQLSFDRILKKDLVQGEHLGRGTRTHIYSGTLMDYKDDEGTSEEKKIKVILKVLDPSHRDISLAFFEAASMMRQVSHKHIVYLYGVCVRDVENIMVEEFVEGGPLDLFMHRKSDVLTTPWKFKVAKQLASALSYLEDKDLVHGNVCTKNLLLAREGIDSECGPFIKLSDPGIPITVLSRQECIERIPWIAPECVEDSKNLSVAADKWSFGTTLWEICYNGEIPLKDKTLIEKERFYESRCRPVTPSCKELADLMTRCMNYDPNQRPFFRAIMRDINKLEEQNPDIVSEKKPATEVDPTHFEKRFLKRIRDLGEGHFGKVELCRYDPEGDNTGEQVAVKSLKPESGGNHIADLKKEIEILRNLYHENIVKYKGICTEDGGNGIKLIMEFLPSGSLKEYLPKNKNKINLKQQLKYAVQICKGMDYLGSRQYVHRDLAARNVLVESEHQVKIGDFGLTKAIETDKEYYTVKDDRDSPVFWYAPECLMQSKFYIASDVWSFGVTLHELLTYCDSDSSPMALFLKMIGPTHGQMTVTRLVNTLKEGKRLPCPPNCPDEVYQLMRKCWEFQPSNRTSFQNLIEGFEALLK

Compound: COc1ccc2nc(Nc3nc(=O)cc(C)[nH]3)nc(C)c2c1
- Ratio IC50 [1]: > 1

Compound: CCOc1ccc2nc(Nc3nc(=O)cc(-c4ccccc4)[nH]3)nc(C)c2c1
- IC50 (cells [2]): 19 µM
- IC50 (cells [3]): 37.8 µM

Compound: CCOc1ccc2nc(NC3=NC(C)=CC(C)(C)N3)nc(C)c2c1
- IC50 (FaDu): 18.8 µM
- inhibition [4]: inactive
- IC50 (cells [2]): 17 µM
- IC50 (cells [3]): 37.5 µM
- inhibition [5]: inactive
- inhibition [6]: inactive
- IC50 (cells [7]): 29.4 µM

Compound: Cc1nc(Nc2nc(=O)cc(-c3ccccc3)[nH]2)nc2cc3c(cc12)OCO3
- Ratio IC50 [1]: > 3

Compound: Cc1cc2nc(Nc3nc(=O)c(C)c(C)[nH]3)nc(C)c2cc1C
- Ratio IC50 [1]: > 4

Compound: Cc1cc(C)c2nc(Nc3nc(C)c(C)c(O)n3)nc(C)c2c1
- Ratio IC50 [1]: > 7

Compound: CC1=CC(C)(C)N=C(Nc2nc(C)c3cc(C)cc(C)c3n2)N1
- IC50 (FaDu): 1.9 µM
- IC50 (cells [2]): 3.2 µM
- IC50 (cells [3]): 2.4 µM
- IC50 (cells [7]): 1.2 µM

Compound: CC1=CC(C)(C)N=C(Nc2nc(C)c3cc(C)ccc3n2)N1
- IC50 (cells [2]): 12.8 µM
- IC50 (cells [3]): 49.3 µM
